The target in one series is CDK1 (Homo sapiens, UniProt P06493). The settings on record: cited from earlier work.
Series [1] deals with GSK-3. The following applies: cited from earlier work.
For series [2], the system named is GSK-3. The following applies: acting primarily through beta3-adrenoreceptors; similar extent as insulin; Moule et al. 1997; cited from earlier work.
A further series relates to HIV. Briefly: Plasma HIV viral load. It counts as in vivo. The settings on record: individual subjects on VPA (three subjects; the first changed antiretroviral therapy); listed as VPA. As to the method: (§1) Twenty-two eligible subjects, six without cognitive impairment and 16 with cognitive impairment, were enrolled and block-randomized within impairment strata to receive 250 mg of VPA or placebo twice daily. Cognitive impairment was defined as performance at least one standard deviation below the mean on two or more neuropsychological tests, or at least two standard deviations below the mean on one neuropsychological test, using normative data previously applied by the Dana cohort (Dana 1996). Subjects were evaluated at 2, 6, and 10 weeks for adverse clinical and laboratory experiences. Neuropsychological evaluations (see Table 3) were performed at screening, week 6, and week 10 along with global assessments of functioning (subject and investigator), the Fatigue Severity Scale, and the Center for Epidemiologic Studies Depression Scale. A neurological examination and CD4+/CD8+ counts were performed at screening and week 10, while plasma HIV viral load was measured at baseline and week 10.

In series [3] the test system is subjects with HIV-associated cognitive impairment. The series is described as follows: Investigator Clinical Global Impression. The settings on record: human, in vivo. As for the experimental part:
(§2) Tolerability was assessed based on the proportion of subjects able to complete the 10-week study at the original dose of study medication. Safety measures included the occurrences of adverse events and abnormal results on laboratory tests. Measures of efficacy included changes from baseline in: neuropsychological test scores; the Investigator Clinical Global Impression; MRI indices; functioning; and mood. The study was designed to provide approximately 80% power to detect a 45% difference in tolerability (i.e. 95% versus 50%) between the placebo and VPA groups using a one-sided Fisher's exact test at the 5% level of significance.

The test system is the same in series [4]. Briefly: Neuropsychological evaluations, VPA adjunctive therapy trial. The series is classed as in vivo, human. As for the experimental part:
as §1, §2
Changes from baseline were assessed using paired t-tests. Comparisons between treatment arms were based on unequal-variance two-sample t-tests for continuous variables, and Fisher's Exact Tests for categorical variables. Comparisons between treatment arms were adjusted for baseline values using Analysis of Covariance. Primary statistical analyses were performed according to the intention-to-treat principle, using the last-observation-carried-forward imputation strategy for subjects who prematurely dropped out of the study. Secondary analyses excluded such subjects.

On the set-up of series [5]: species or system human. The following applies: in vivo. As to the method:
as §1
Tolerability was assessed based on the proportion of subjects able to complete the 10-week study at the original dose of study medication. Safety measures included the occurrences of adverse events and abnormal results on laboratory tests. […]

Setting [6] is: impaired participants, n = 9, VPA 250 mg twice daily.
The mark [7] stands for this setting: impaired participants, valproic acid minus placebo mean change to week 10, adjusted for baseline, negative = better on valproic acid.
The mark [8] stands for this setting: impaired participants, valproic acid minus placebo mean change to week 10, adjusted for baseline, positive = better on valproic acid.

Consider four compounds from US20090081318A1, “TREATMENT OF NEUROADS USING INHIBITORS OF GLYCOGEN SYNTHASE KINASE (GSK)-3” (priority 2005, published 2009).

“And” between values parts separate entries of the source, which are not always exact repeats. Identical values can stand only once.

In general, IC50 refers to the concentration that inhibits the measured activity by half. As a reminder, the Ki is a dissociation constant, usually derived from enzyme kinetics or from competition with a known ligand.

Chain of CDK1 (P06493 whole entry, species assumed): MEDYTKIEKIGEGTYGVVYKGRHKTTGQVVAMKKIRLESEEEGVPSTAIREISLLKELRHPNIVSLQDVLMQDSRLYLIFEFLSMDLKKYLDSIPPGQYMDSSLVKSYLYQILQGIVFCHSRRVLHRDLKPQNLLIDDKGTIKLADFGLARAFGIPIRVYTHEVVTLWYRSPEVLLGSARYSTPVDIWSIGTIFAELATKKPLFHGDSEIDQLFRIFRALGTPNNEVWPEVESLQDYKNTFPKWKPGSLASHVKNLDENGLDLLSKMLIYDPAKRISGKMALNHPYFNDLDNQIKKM
Chain of CDK1 (P14635 whole entry partner, species assumed): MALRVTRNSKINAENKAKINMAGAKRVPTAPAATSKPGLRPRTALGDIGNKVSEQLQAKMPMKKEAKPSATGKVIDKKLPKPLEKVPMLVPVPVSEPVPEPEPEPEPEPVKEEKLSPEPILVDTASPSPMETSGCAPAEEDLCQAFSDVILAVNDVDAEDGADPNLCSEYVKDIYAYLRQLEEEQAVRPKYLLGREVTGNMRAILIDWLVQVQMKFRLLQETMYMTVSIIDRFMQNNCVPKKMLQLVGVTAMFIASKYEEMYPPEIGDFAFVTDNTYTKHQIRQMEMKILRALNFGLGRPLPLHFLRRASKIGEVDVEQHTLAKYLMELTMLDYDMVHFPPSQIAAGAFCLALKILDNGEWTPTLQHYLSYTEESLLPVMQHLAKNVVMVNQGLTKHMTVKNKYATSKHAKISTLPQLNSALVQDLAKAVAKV

Regarding `[Be+2]` [Beryllium], the IC50 at CDK1 is 50 µM; with GSK-3 [1] (read-out: Inhibition potency IC50), 6 µM.

Take `CC(C)NCC(O)c1ccc(O)c(O)c1` (centres unmarked) [Isoproterenol]: the “Decrease of GSK-3 activity” value in the series on GSK-3 [2] is reported as “approximately 50%”.

In the case of `CCCC(CCC)C(=O)O` [Valproic Acid, Valproic acid], the “Change in plasma HIV RNA from baseline to week 10” value in the series on HIV was 33,300 to 316 copies/ml and 100,000 to 93,900 copies/ml and 32,500 to 24,700 copies/ml. Also, the “Investigator clinical global impression, placebo vs VPA group” value in series [3] is “No significant difference”. In series [4] (setting [6]), the “Composite Neuropsychological Z-score, mean change from baseline to week 10” value is reported as 4.56; the “Digit Symbol, mean change from baseline to week 10” value is 6.56; the “Grooved Pegboard Dominant Hand, mean change from baseline to week 10” value is -9.33 s; the “Grooved Pegboard Nondominant Hand, mean change from baseline to week 10” value is -6.44 s. In series [4] (setting [6]), the “Mean Reaction Time Choice, mean change from baseline to week 10” value is -43.38 ms; the “Mean Reaction Time Sequential, mean change from baseline to week 10” value is -8.63 ms; the “Rey Auditory Verbal Memory Correct Recognition, mean change from baseline to week 10” value is 0.11; the “Rey Auditory Verbal Memory Delayed Recall, mean change from baseline to week 10” value is given as 1.11. In series [4] (setting [6]), the “Rey Auditory Verbal Memory Recall after Interference, mean change from baseline to week 10” value is listed as −0.22; the “Rey Auditory Verbal Memory Trial 5, mean change from baseline to week 10” value was found to be 0.78; the “Timed Gait, mean change from baseline to week 10” value is -0.65 s. In series [4] (setting [7]), the “Grooved Pegboard Dominant Hand, Treatment Effect” value was -10.56 s; the “Grooved Pegboard Nondominant Hand, Treatment Effect” value is -4.53 s; the “Mean Reaction Time Choice, Treatment Effect” value came to 5.67 ms; the “Mean Reaction Time Sequential, Treatment Effect” value amounted to 29.08 ms. In addition, in series [4] (setting [7]), the “Timed Gait, Treatment Effect” value was -0.25 s. Further, in series [4] (setting [8]), the “Composite Neuropsychological Z-score, Treatment Effect” value is listed as 2.31; the “Digit Symbol, Treatment Effect” value is listed as 5.02; the “Rey Auditory Verbal Memory Correct Recognition, Treatment Effect” value is 1.16; the “Rey Auditory Verbal Memory Delayed Recall, Treatment Effect” value turned out to be 1.82. Moreover, in series [4] (setting [8]), the “Rey Auditory Verbal Memory Recall after Interference, Treatment Effect” value was found to be 1.57; the “Rey Auditory Verbal Memory Total, Treatment Effect” value was found to be 2.22; the “Rey Auditory Verbal Memory Trial 5, Treatment Effect” value is −0.38. Also, the “Between group differences on independent neuropsychological tests and composite z-score” value in series [4] (impaired subjects, VPA vs placebo) is on record as “not statistically significant”. Moreover, in series [5], the Adverse experience result is recorded as “mild new onset of acid reflux” and the “Increase in liver function tests” value was < 2.5 times the upper limit of normal.

Take GRPRTTS*FAE [Pseudosubstrate peptide]: the inhibition constant (Ki) at GSK-3 [1] (read-out: Inhibition potency Ki) was 700 µM.
